Reference: publication PMC2644304 (Nature chemical biology, 2009)

Molecular target: AcsD (Dickeya chrysanthemi, UniProt Q93AT8)
Experiment: X-ray crystal structure of the complex
Format: binding
Conditions: co-crystal with sulfate and citrate; ATP site

## Nc1ncnc2c1ncn2[C@@H]1O[C@H](CO)[C@@H](O)[C@H]1O [adenosine]
  X-ray crystal structure of the complex: adenosine binds in the same pocket as seen in the ATP structure
